In US8865756B2, “Inhibitors of HCV NS5A” (Presidio Pharmaceuticals, Inc., priority 2008, dated 2014):

tested on: HCV 1b_Huh-Luc/Neo-ET cell line persistently expressing a bicistronic genotype 1b replicon in Huh 7 cells; experiment: HCV replicon assay (luciferase readout); assay type: cell-based; conditions: Hepatitis C virus, Huh-7, 72 h, read-out: Inhibition of HCV genotype 1b
Procedure, shortened: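 EC50, determined repeatedly, comes from a four-parameter logistic fit of luciferase signal as percent of untreated control. Readout follows 72 h compound exposure, in triplicate, of the HCV 1b_Huh-Luc/Neo-ET replicon line.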

Structure (SMILES)	EC50
COC(=O)N[C@@H](C(=O)N1CCC[C@H]1c1ncc(-c2ccc(C#Cc3ccc(C(=O)NC[C@@H]4CCCN4C(=O)[C@H](NC(=O)N4CCOCC4)c4ccccc4)cc3)cc2)[nH]1)c1ccccc1 [Compound 235]	< 1 nM
COC(=O)N[C@@H](C(=O)N1CCC[C@H]1c1ncc(-c2ccc(C#Cc3ccc(C(=O)NC[C@@H]4CCCN4C(=O)[C@H](NC(=O)N4CCN(C)CC4)c4ccccc4)cc3)cc2)[nH]1)c1ccccc1 [Compound 236]	< 1 nM
O=C(N[C@@H](C(=O)N1CCC[C@H]1c1ncc(-c2ccc(C#Cc3ccc(-c4cnc([C@@H]5CCCN5C(=O)[C@@H](c5ccccc5)N5CCOCC5)[nH]4)cc3)cc2)[nH]1)c1ccccc1)C1CC1 [Compound 237]	< 1 nM
CN1CCN(C(=O)N[C@@H](C(=O)N2CCC[C@H]2c2ncc(-c3ccc(C#Cc4ccc(-c5cnc([C@@H]6CCCN6C(=O)[C@H](NC(=O)C6CC6)c6ccccc6)[nH]5)cc4)cc3)[nH]2)c2ccccc2)CC1 [Compound 238]	< 1 nM
COC(=O)N[C@@H](C(=O)N1CCC[C@H]1c1ncc(-c2ccc(C#Cc3ccc(-c4cnc([C@@H]5CCCN5C(=O)[C@H](NC(=O)N5CCN(C)CC5)c5ccccc5)[nH]4)cc3)cc2)[nH]1)c1ccccc1 [Compound 240]	< 1 nM
COC(=O)N[C@@H](C(=O)N1CCC[C@H]1c1ncc(-c2ccc(C#Cc3ccc(-c4cnc([C@@H]5CCCN5C(=O)[C@H](NC(=O)N5CCC(O)CC5)c5ccccc5)[nH]4)cc3)cc2)[nH]1)c1ccccc1 [Compound 241]	< 1 nM
COC(=O)N[C@@H](C(=O)N1CCC[C@H]1c1ncc(-c2ccc(C#Cc3ccc(-c4cnc([C@@H]5CCCN5C(=O)[C@H](NC(=O)N5CCCCC5)c5ccccc5)[nH]4)cc3)cc2)[nH]1)c1ccccc1 [Compound 242]	< 1 nM
COC(=O)N[C@@H](C(=O)N1CCC[C@H]1c1ncc(-c2ccc(C#Cc3ccc(-c4cnc([C@@H]5CCCN5C(=O)[C@H](NC(=O)N5CCCC5)c5ccccc5)[nH]4)cc3)cc2)[nH]1)c1ccccc1 [Compound 243]	< 1 nM
CCOC(=O)N[C@@H](C(=O)N1CCC[C@H]1c1ncc(-c2ccc(C#Cc3ccc(-c4cnc([C@@H]5CCCN5C(=O)[C@H](NC(=O)OCC)c5ccccc5)[nH]4)cc3)cc2)[nH]1)c1ccccc1 [Compound 244]	< 1 nM
O=C(N[C@@H](C(=O)N1CCC[C@H]1c1ncc(-c2ccc(C#Cc3ccc(-c4cnc([C@@H]5CCCN5C(=O)[C@H](NC(=O)N5CC[C@H](O)C5)c5ccccc5)[nH]4)cc3)cc2)[nH]1)c1ccccc1)N1CC[C@H](O)C1 [Compound 245]	< 1 nM
CC(C)(C)OC(=O)N[C@@H](C(=O)N1CCC[C@H]1c1ncc(-c2ccc(C#Cc3ccc(-c4nnc([C@@H]5CCCN5C(=O)[C@H](NC(=O)OC(C)(C)C)c5ccccc5)[nH]4)cc3)cc2)[nH]1)c1ccccc1 [Compound 246]	< 1 nM
COC(=O)N[C@@H](C(=O)N1CCC[C@H]1c1ncc(-c2ccc(C#Cc3ccc(-c4nnc([C@@H]5CCCN5C(=O)[C@H](NC(=O)OC)c5ccccc5)[nH]4)cc3)cc2)[nH]1)c1ccccc1 [Compound 247]	< 1 nM
O=C(N[C@@H](C(=O)N1CCC[C@H]1c1ncc(-c2ccc(C#Cc3ccc(-c4cnc([C@@H]5CCCN5C(=O)[C@H](NC(=O)N5CCOCC5)c5ccccc5)[nH]4)cc3)cc2)[nH]1)c1ccccc1)N1CCOCC1 [Compound 248]	< 1 nM
O=C(N[C@@H](C(=O)N1CCC[C@H]1c1ncc(-c2ccc(C#Cc3ccc(-c4cnc([C@@H]5CCCN5C(=O)[C@H](NC(=O)N5CCCC5)c5ccccc5)[nH]4)cc3)cc2)[nH]1)c1ccccc1)N1CCCC1 [Compound 249]	< 1 nM
O=C(N[C@@H](C(=O)N1CCC[C@H]1c1ncc(-c2ccc(C#Cc3ccc(-c4cnc([C@@H]5CCCN5C(=O)[C@H](NC(=O)N5CCCCC5)c5ccccc5)[nH]4)cc3)cc2)[nH]1)c1ccccc1)N1CCCCC1 [Compound 250]	< 1 nM
O=C(N[C@@H](C(=O)N1CCC[C@H]1c1ncc(-c2ccc(C#Cc3ccc(-c4cnc([C@@H]5CCCN5C(=O)[C@H](NC(=O)N5CCC(O)CC5)c5ccccc5)[nH]4)cc3)cc2)[nH]1)c1ccccc1)N1CCC(O)CC1 [Compound 251]	< 1 nM
O=C(N[C@@H](C(=O)N1CCC[C@H]1c1ncc(-c2ccc(C#Cc3ccc(-c4cnc([C@@H]5CCCN5C(=O)[C@H](NC(=O)N5CC[C@@H](O)C5)c5ccccc5)[nH]4)cc3)cc2)[nH]1)c1ccccc1)N1CC[C@@H](O)C1 [Compound 252]	< 1 nM
COC(=O)N[C@@H](C(=O)N1CCC[C@H]1c1ncc(-c2ccc(C#Cc3ccc(-c4cnc([C@@H]5CCCN5C(=O)[C@H](NC(=O)N5CCS(=O)(=O)CC5)c5ccccc5)[nH]4)cc3)cc2)[nH]1)c1ccccc1 [Compound 253]	< 1 nM
COC(=O)N[C@@H](C(=O)N1CCC[C@H]1c1ncc(-c2ccc(C#Cc3ccc(-c4cnc([C@@H]5CCCN5C(=O)[C@H](NC(=O)N5CCC[C@@H]5CO)c5ccccc5)[nH]4)cc3)cc2)[nH]1)c1ccccc1 [Compound 254]	< 1 nM
COC(=O)N[C@@H](C(=O)N1CCC[C@H]1c1ncc(-c2ccc(C#Cc3ccc(-c4cnc([C@@H]5CCCN5C(=O)[C@H](NC(=O)N5CCC[C@H]5CO)c5ccccc5)[nH]4)cc3)cc2)[nH]1)c1ccccc1 [Compound 255]	< 1 nM

Structure (SMILES)	EC50
COC(=O)N[C@@H](C(=O)N1CCC[C@H]1c1ncc(-c2ccc(C#Cc3ccc(-c4cnc([C@@H]5CCCN5C(=O)[C@H](C)c5ccccc5)[nH]4)cc3)cc2)[nH]1)c1ccccc1 [Compound 256]	< 1 nM
COC(=O)N[C@@H](C(=O)N1CCC[C@H]1c1ncc(-c2ccc(C#Cc3ccc(-c4cnc([C@@H]5CCCN5C(=O)C5(c6ccccc6)CC5)[nH]4)cc3)cc2)[nH]1)c1ccccc1 [Compound 257]	< 1 nM
CC[C@@H](C(=O)N1CCC[C@H]1c1ncc(-c2ccc(C#Cc3ccc(-c4cnc([C@@H]5CCCN5C(=O)[C@H](NC(=O)OC)c5ccccc5)[nH]4)cc3)cc2)[nH]1)c1ccccc1 [Compound 258]	< 1 nM
COC[C@H]1CCCN1C(=O)N[C@@H](C(=O)N1CCC[C@H]1c1ncc(-c2ccc(C#Cc3ccc(-c4cnc([C@@H]5CCCN5C(=O)[C@H](NC(=O)OC)c5ccccc5)[nH]4)cc3)cc2)[nH]1)c1ccccc1 [Compound 259]	< 1 nM
COC[C@@H]1CCCN1C(=O)N[C@@H](C(=O)N1CCC[C@H]1c1ncc(-c2ccc(C#Cc3ccc(-c4cnc([C@@H]5CCCN5C(=O)[C@H](NC(=O)OC)c5ccccc5)[nH]4)cc3)cc2)[nH]1)c1ccccc1 [Compound 260]	< 1 nM
COC(=O)N[C@@H](C(=O)N1CCC[C@H]1c1ncc(-c2ccc(C#Cc3ccc(-c4cnc([C@@H]5CCCN5C(=O)[C@H](NC(=O)N5CCC[C@@H]5C)c5ccccc5)[nH]4)cc3)cc2)[nH]1)c1ccccc1 [Compound 261]	< 1 nM
COC(=O)N[C@@H](C(=O)N1CCC[C@H]1c1ncc(-c2ccc(C#Cc3ccc(-c4cnc([C@@H]5CCCN5C(=O)[C@H](NC(=O)N5CCC[C@H]5C)c5ccccc5)[nH]4)cc3)cc2)[nH]1)c1ccccc1 [Compound 262]	< 1 nM
COC(=O)N[C@@H](C(=O)N1CCC[C@H]1c1ncc(-c2ccc(C#Cc3ccc(-c4cnc([C@@H]5CCCN5C(=O)[C@H](NC(=O)N5CCC[C@H](O)C5)c5ccccc5)[nH]4)cc3)cc2)[nH]1)c1ccccc1 [Compound 263]	< 1 nM
COC(=O)N[C@@H](C(=O)N1CCC[C@H]1c1ncc(-c2ccc(C#Cc3ccc(-c4cnc([C@@H]5CCCN5C(=O)[C@H](NC(=O)N5CCC[C@@H](O)C5)c5ccccc5)[nH]4)cc3)cc2)[nH]1)c1ccccc1 [Compound 264]	< 1 nM
C[C@@H](c1ncc(-c2ccc(C#Cc3ccc(-c4cnc([C@@H]5CCCN5C(=O)[C@H](NC(=O)OC(C)(C)C)c5ccccc5)[nH]4)cc3)cc2)[nH]1)N(C)C(=O)[C@H](NC(=O)OC(C)(C)C)c1ccccc1 [Compound 265]	< 1 nM
COC(=O)N[C@H](C(=O)N1CCC[C@H]1c1ncc(-c2ccc(C#Cc3ccc(-c4cnc([C@@H]5CCCN5C(=O)[C@@H](NC(=O)OC)C(C)C)[nH]4)cc3)cc2)[nH]1)C(C)C [Compound 266]	< 1 nM
COC(=O)N[C@H](C(=O)N(C)[C@@H](C)c1ncc(-c2ccc(C#Cc3ccc(-c4cnc([C@@H]5CCCN5C(=O)[C@@H](NC(=O)OC)C(C)C)[nH]4)cc3)cc2)[nH]1)C(C)C [Compound 267]	< 1 nM
COC(=O)N[C@@H](C(=O)N1CCC[C@H]1c1ncc(-c2ccc(C#Cc3ccc(-c4cnc([C@@H]5CCCN5C(=O)[C@H](NC(=O)N5CC[C@@H](O)C5)c5ccccc5)[nH]4)cc3)cc2)[nH]1)c1ccccc1 [Compound 268]	< 1 nM
COC(=O)N[C@@H](C(=O)N1CCC[C@H]1c1ncc(-c2ccc(C#Cc3ccc(-c4cnc([C@@H]5CCCN5C(=O)[C@H](NC(=O)N5CC[C@H](O)C5)c5ccccc5)[nH]4)cc3)cc2)[nH]1)c1ccccc1 [Compound 269]	< 1 nM
COC(=O)N[C@@H](C(=O)N1CCC[C@H]1c1ncc(-c2ccc(C#Cc3ccc(-c4cnc([C@@H]5CCCN5C(=O)[C@H](NC(=O)N5CC[C@H](F)C5)c5ccccc5)[nH]4)cc3)cc2)[nH]1)c1ccccc1 [Compound 270]	< 1 nM
COC(=O)N[C@@H](C(=O)N1CCC[C@H]1c1ncc(-c2ccc(C#Cc3ccc(-c4cnc([C@@H]5CCCN5C(=O)[C@H](NC(=O)N5CC[C@@H](OC)C5)c5ccccc5)[nH]4)cc3)cc2)[nH]1)c1ccccc1 [Compound 271]	< 1 nM
COC(=O)N[C@@H](C(=O)N1CCC[C@H]1c1ncc(-c2ccc(C#Cc3ccc(-c4cnc([C@@H]5CCCN5C(=O)[C@H](NC(=O)N5CC[C@H](OC)C5)c5ccccc5)[nH]4)cc3)cc2)[nH]1)c1ccccc1 [Compound 272]	< 1 nM
COC(=O)N[C@@H](C(=O)N1CCC[C@H]1c1ncc(-c2ccc(C#Cc3ccc(-c4cnc([C@@H]5CCCN5C(=O)[C@H](NC(=O)N5CCC(C)(O)CC5)c5ccccc5)[nH]4)cc3)cc2)[nH]1)c1ccccc1 [Compound 273]	< 1 nM
COC(=O)N[C@@H](C(=O)N(C)[C@@H](C)c1ncc(-c2ccc(C#Cc3ccc(-c4cnc([C@@H]5CCCN5C(=O)[C@H](NC(=O)OC)c5ccccc5)[nH]4)cc3)cc2)[nH]1)c1ccccc1 [Compound 274]	< 1 nM
